Drawing on ChEMBL document CHEMBL1149443, “Synthesis of the novel series of bispyridinium compounds bearing (E)-but-2-ene linker and evaluation of their reactivation activity against chlorpyrifos-inhibited acetylcholinesterase” (Bioorg Med Chem Lett, 2006), this text covers inhibition for 1 molecule.

For this assay, the target named is T1, Acetylcholinesterase (Rattus norvegicus) (UniProt P37136).
T1 sequence (whole entry): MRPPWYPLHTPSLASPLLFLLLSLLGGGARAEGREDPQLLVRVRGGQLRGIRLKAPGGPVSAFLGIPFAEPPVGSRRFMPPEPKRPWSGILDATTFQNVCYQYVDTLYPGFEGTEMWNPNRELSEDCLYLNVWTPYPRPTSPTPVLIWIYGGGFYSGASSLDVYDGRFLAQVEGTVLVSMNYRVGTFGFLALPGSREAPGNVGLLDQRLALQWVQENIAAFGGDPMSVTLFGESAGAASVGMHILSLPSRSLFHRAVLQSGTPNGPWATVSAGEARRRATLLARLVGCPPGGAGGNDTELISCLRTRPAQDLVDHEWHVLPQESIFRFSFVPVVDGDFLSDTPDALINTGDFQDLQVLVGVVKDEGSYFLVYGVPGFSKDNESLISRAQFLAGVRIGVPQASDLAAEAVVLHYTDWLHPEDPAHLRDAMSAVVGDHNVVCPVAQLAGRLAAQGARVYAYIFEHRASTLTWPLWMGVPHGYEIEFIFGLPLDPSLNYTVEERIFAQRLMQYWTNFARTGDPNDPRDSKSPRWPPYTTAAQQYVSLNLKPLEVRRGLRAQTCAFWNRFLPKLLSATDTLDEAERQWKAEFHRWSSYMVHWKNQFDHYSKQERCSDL
As to the kind of experiment: Inhibitory activity against AChE from rat brain homogenate. Type of assay: functional. The following applies: concentration not given here.

With `CCOP(=S)(OCC)Oc1nc(Cl)c(Cl)cc1Cl`, the inhibition – broadly, how much of the control response was suppressed – came to 95%.
